The values below come from patent US20090214439A1, “Fluorinated Carbohydrates and Their Use in Tumor Visualization, Tissue Engineering, and Cancer Chemotherapy” (Trustees of Tufts College, priority 2006, published 2009).

For test [1], the system named is HL60 cells adhering to fibronectin. Nature of the test: Static adhesion of labeled cells to fibronectin-coated plates. The test is classed as cell-based. As to conditions: HL60 cells incubated 72 h with 200 μM compound; PMA or thapsigargin stimulation; 1 hour adhesion. Here is the method: FIG. 9 depicts (a) adhesion of HL60 cells to plates coated with fibronectin in the presence of thapsigargin (Tg). The cells were incubated with compounds for 72 hours, washed with PBS and then allowed to adhere to plates. After 1 hr, unattached cells were removed by rinsing with PBS and then the number of cells quantified by addition of calcein-AM and fluorescence counting. (b) Similar assay as in (a) but with compounds 4a and 4d (data in (b) is taken from Horstkorte, R.; Rau, K.; Laabs, S.; Danker, K.; Reutter, W. “Biochemical engineering of the N-acyl side chain of sialic acid leads to increased calcium influx from intracellular compartments and promotes differentiation of HL60 cells” FEBS Lett. 2004, 571, 99-102).
Adhesion of Labeled Cells on Collagen and Fibronectin. The ability of cells labeled with fluorinated carbohydrates to adhere to fibronectin and collagen was also investigated. […] To quantify adhesion, 96-well plates were coated with fibronectin or collagen (10 μg/mL in PBS) for 16 hours at 4° C. followed by treatment with 1% BSA for 4 hours to block nonspecific adhesion sites. […] Unattached cells were washed away by rinsing with PBS and the cells were quantified by addition of the fluorogenic esterase substrate calcein-AM and followed by measurement of emission at 520 nm in a microtiter fluorescence plate reader. […]

Another test concerns HL60-II cells. The experiment in a line: Incorporation of unnatural sialic acids in highly sialylated cells. The class given is cell-based. Here is the method: (§1) To visualize and quantify the sialic acid incorporation on cell surfaces, 1,2-diamino-4,5-methylenedioxybenzene (DMB) was used as a fluorogenic reagent for labeling α-keto acids (FIG. 4). [Hara, S.; Yamaguchi, M.; Takemori, Y.; Furuhata, K.; Ogura, H.; Nakamura, M. “Determination of Mono-O-Acetylated N-Acetylneuraminic Acids in Human and Rat Sera by Fluorometric High-Performance Liquid-Chromatography” Anal. Biochem. 1989, 179, 162-6.] Briefly, the membrane fraction was obtained after incubation with a given compound (200 μM typical, 900 μM maximum) for 3 days. The membrane pellet was then hydrolyzed by use of 2 M AcOH at 80° C. and then allowed them to react with DMB to yield the corresponding quinoxalinone derivatives. The samples were analyzed by HPLC using a fluorescence detector. The retention times (by comparison to an authentic sample) provide information about the identity, LC ESI-MS unambiguously confirms the molecular structure, and integration of the peaks gives quantitative information on the relative amounts of membrane-derived sialic acids.
(§2) Roughly 75% of the total sialic acid (using substrate 5g) on the cell surface was fluorinated using these cell lines.

Test [2] has as its system cell surfaces (Jurkat, HeLa and HL-60 cells). The experiment in a line: Cell surface expression of sialic acids, DMB labeling with fluorescence HPLC (cell line not stated). The class given is cell-based. As to conditions: 200 μM typical, 900 μM maximum, 3 days. The source says:
Cell Surface Expression of Fluorinated Sialic Acids. […] These experiments assay the overall action of multiple biosynthetic steps downstream of sialic acid, namely activation, processing and attachment to proteins and lipids and finally successful trafficking to the membrane. As mentioned above, six derivatives of mannosamine have been prepared and tested. In order to bypass the most stringent step in sialic acid biosynthetic pathway (ManNAc 6-kinase), fluorinated sialic acids were also prepared for direct use in feeding experiments. Sialic acids were synthesized as described above by enzymatic conversion of mannosamines to the corresponding sialic acids. […]
To visualize and quantify the sialic acid incorporation on cell surfaces, 1,2-diamino-4,5-methylenedioxybenzene (DMB) was used as a fluorogenic reagent for labeling α-keto acids (FIG. 4). […] The samples were analyzed by HPLC using a fluorescence detector. The retention times (by comparison to an authentic sample) provide information about the identity, LC ESI-MS unambiguously confirms the molecular structure, and integration of the peaks gives quantitative information on the relative amounts of membrane-derived sialic acids. […]

Test [3] deals with BJA-B K20 cells (deficient in UDP-GlcNAc 2-epimerase). The experiment in a line: Replacement of Neu5Ac with unnatural sialic acids in hyposialylated cells. The class given is cell-based, human. As to the method: as §1
Replacement of Neu5Ac with Unnatural Sialic Acids in Hyposialylated Cells. […] Using these hyposialylated cell lines incorporation of fluorinated precursors was investigated and the overall percentage of sialic acids on cell surfaces that are fluorinated was assessed. […]

Test [4] deals with HL60-I cells (deficient in UDP-GlcNAc 2-epimerase). The test is described as above. The class given is cell-based. Here is the method: as §1
Replacement of Neu5Ac with Unnatural Sialic Acids in Hyposialylated Cells. Cell lines HL60-I and BJA-B K20, variants respectively of the parent HL60 and human B-cell lymphoma (BJA-B), are deficient in UDP-GlcNAc 2-epimerase and show a global suppression of sialylation of glycoconjugates, including expressing mostly unsialylated Lewis-X. [Keppler, 0. T.; Hinderlich, S.; Langner, J.; Schwartz-Albiez, R.; Reutter, W.; Pawlita, M. “UDP-GlcNAc 2-epimerase: A regulator of cell surface sialylation” Science 1999, 284, 1372-6.] Using these hyposialylated cell lines incorporation of fluorinated precursors was investigated and the overall percentage of sialic acids on cell surfaces that are fluorinated was assessed. Both HL60-I and BJA-B K20 cell lines served as metabolic hosts for fluorinated sialic acids 5-N-trifluoropropyl-Neu (5e) and 5-N-trifluorobutyl-Neu (5g) (FIG. 8). […] In contrast, untreated cells only contained Neu5Ac. […]

Test [5] relates to K88 (a sub clone of BJA-B). The experiment in a line: Incorporation of unnatural sialic acids in highly sialylated cells. The class given is cell-based, human. Here is the method:
as §1, §2

The next test has as its system HeLa cells. The experiment in a line: Cell surface expression of sialic acids, DMB labeling with fluorescence HPLC. The class given is cell-based. An excerpt:
(§3) Cell Surface Expression of Fluorinated Sialic Acids. […] These experiments assay the overall action of multiple biosynthetic steps downstream of sialic acid, namely activation, processing and attachment to proteins and lipids and finally successful trafficking to the membrane. As mentioned above, six derivatives of mannosamine have been prepared and tested. In order to bypass the most stringent step in sialic acid biosynthetic pathway (ManNAc 6-kinase), fluorinated sialic acids were also prepared for direct use in feeding experiments. Sialic acids were synthesized as described above by enzymatic conversion of mannosamines to the corresponding sialic acids. Fluorine containing sialic acids were fed to Jurkat, HeLa and HL-60 cells in the peracetylated, methyl ester form since Reutter and Bertozzi have independently shown that exogenous addition of sialic acids in this form results in efficient incorporation of a wide range of derivatives. The degree of fluorination on the N-acyl chain was varied from a single terminal trifluoromethyl group to a —C11F17 group.
(§4) To visualize and quantify the sialic acid incorporation on cell surfaces, 1,2-diamino-4,5-methylenedioxybenzene (DMB) was used as a fluorogenic reagent for labeling α-keto acids (FIG. 4). [Hara, S.; Yamaguchi, M.; Takemori, Y.; Furuhata, K.; Ogura, H.; Nakamura, M. “Determination of Mono-O-Acetylated N-Acetylneuraminic Acids in Human and Rat Sera by Fluorometric High-Performance Liquid-Chromatography” Anal. Biochem. 1989, 179, 162-6.] Briefly, the membrane fraction was obtained after incubation with a given compound (200 μM typical, 900 μM maximum) for 3 days. […] The samples were analyzed by HPLC using a fluorescence detector. The retention times (by comparison to an authentic sample) provide information about the identity, LC ESI-MS unambiguously confirms the molecular structure, and integration of the peaks gives quantitative information on the relative amounts of membrane-derived sialic acids.

In test [6] the test system is HL60 cells adhering to fibronectin. Particulars: HL60 cells cultivated in the presence of the compound; literature data (Villavicencio-Lorini 2002; Horstkorte 2004); cited from earlier work.
Another test concerns Jurkat cells. The experiment in a line: Cell surface expression of sialic acids, DMB labeling with fluorescence HPLC. The test is classed as cell-based. Particulars: DMB conjugates of membrane fraction.
Excerpt: as §3, §4

As to 5-N-trifluorobutyl-Neu [Compound 5g], in test [1], the “decrease of adhesion to fibronectin compared to untreated cells” value is on record as around 70%. The “incorporation of the fluorinated sialic acid” value (in the test on HL60-II cells; in test [5]) was “readily incorporated” each time. The “total sialic acid on the cell surface that was fluorinated” value (in the test with HL60-II cells; in test [5]) was “Roughly 75%” throughout. The “incorporation on cell surfaces as sialoglycoconjugates” value in test [2] is “escorted and appended to cellular surfaces”. Further, the “incorporation on the cell surface by LC ESI-MS” value in [3] and in [4] was “unambiguously confirmed” in each case. In test [4] (DMB labeling and fluorescence HPLC), the “cell surface sialylation coming from exogenously added compound” value is around 75%. Besides, in the test on HeLa cells, the “total sialic acid on the cell surface replaced” value is on record as 75%. Also, the “cell surface incorporation / expression” value with HeLa cells (DMB conjugates of membrane fraction) is listed as “Cell surface expression of 5g”.

With `CCC(=O)N[C@@H]1C(O)O[C@H](CO)[C@@H](O)[C@@H]1O` (stereo partly shown) [Compound 4d, N-propanoyl-mannosamine], in test [6], the “increase of adhesion to fibronectin” value is on record as “more than 130%”.

On to `O=C(CC(F)(F)F)N[C@H]1[C@H]([C@H](O)[C@H](O)CO)OC(O)(C(=O)O)C[C@@H]1O` (stereo partly shown) [Compound 5e, 5-N-trifluoropropyl-Neu], for which the “adhesion to fibronectin compared to untreated cells” value in test [1] is given as “decreased”. In addition, the “incorporation of the fluorinated sialic acid” value (in the test with HL60-II cells; in [5]) was “readily incorporated” throughout. In test [2], the “incorporation on cell surfaces as sialoglycoconjugates” value was “escorted and appended to cellular surfaces”. For the same compound, the “incorporation on the cell surface by LC ESI-MS” value in test [3] and in [4] was “unambiguously confirmed” each time. Moreover, the “cell surface incorporation / expression” value with Jurkat cells is “efficiently incorporated”.
